Measurements as given in patent publication US11932622B1, “2-(1-(2-hydroxypropyl)-4,5-diphenyl-1H-imidazol-2-yl)pyridine as an anticancer compound” (KING FAISAL UNIVERSITY, priority 2023, dated 2024).

Tests used:
[1] = system: human prostate cancer cells (PC3); test: Assessment of cytotoxicity by SRB assay (PC3); type: cell-based; conditions: 0.01 μM to 100 μM, 72 h
Experimental: (§1) The human prostate cancer cells (PC3) and human osteosarcoma cells (MG-63) were obtained from Nawah Scientific Inc. (Mokatam, Cairo, Egypt) and cultured in DMEM (Dulbecco's modified eagle's medium), Gibco, USA, supplemented with fetal bovine serum (FBS) at a concentration of 10% and 100 U/mL of penicillin and streptomycin (PS). The Cells were incubated at 37° C. in a humidified environment that contained 5% C02.
(§2) Cells were seeded in 96-well plates as aliquots of 100 μL cell suspension and incubated in a complete media for 24 h. Afterward, cells were treated with 2-(1-(2-hydroxypropyl)-4,5-diphenyl-1H-imidazol-2-yl)pyridine at diverse concentrations ranging from 0.01 μM to 100 μM for 72 h. Then, cells were fixed at 4° C. for one hour with 150 μL of 10% trichloroacetic acid (TCA). After washing the cells five times with distilled water, 70 μL of sulforhodamine (SRB) solution (0.4% w/v) was added and incubated for 10 min at room temperature in a dark place. […] Then, 150 μL of Tris pH 10.5 (10 mM) was added, and the absorbance was measured at 540 nm using a BMG LABTECH®-FLUOstar Omega microplate reader (Ortenberg, Germany). Half maximal inhibitory concentrations (IC50) values were calculated for each experiment using GraphPad Prism 6 software. […]
(§3) The inhibition was calculated using the following equation: Inhibition %=100−Average Viability

[2] = system: human osteosarcoma cells (MG-63); test: Assessment of cytotoxicity by SRB assay (MG-63); type: cell-based; conditions: 0.01 μM to 100 μM, 72 h
Experimental: as §1, §2, §3

melting point: 112 to 114 °C
SMILES: CC(O)Cn1c(-c2ccccn2)nc(-c2ccccc2)c1-c1ccccc1 (stereo not drawn) [2-(1-(2-hydroxypropyl)-4,5-diphenyl-1H-imidazol-2-yl)pyridine]
antiproliferative activity against prostate cancer cells (PC3) [1]: excellent antiproliferative activities
antiproliferative activity against osteosarcoma (MG-63) cells [2]: excellent antiproliferative activities
